Test results reported in ChEMBL document CHEMBL5137030 (Eur J Med Chem, 2022).
The source made the active and inactive calls. The calls are words filed in the database; no cut-off is given here.

How the values were obtained:
[1] = tested on: Human alphaherpesvirus 2; experiment: (§1) Antiviral activity against HSV-2 infected in African green monkey Vero cells assessed as inhibition of viral replication by measuring log suppression of virus-induced cytopathic effect at 5 uM incubated for 1 hr followed by washing with PBS and subsequent treatment with compound for 24 hrs by plaque assay; format: functional; settings: time 25 hrs
[2] = tested on: Human alphaherpesvirus 2; experiment: as §1, with “1” for “5”; format: functional; settings: time 25 hrs
[3] = tested on: Human alphaherpesvirus 1; experiment: as §1, with “HSV-1” for “HSV-2”; format: functional; settings: time 25 hrs
[4] = tested on: Human alphaherpesvirus 1; experiment: as §1, with “HSV-1” for “HSV-2”, “1” for “5”; format: functional; settings: time 25 hrs
[5] = tested on: Human alphaherpesvirus 1; experiment: Antiviral activity against HSV-1 infected in African green monkey Vero cells assessed as inhibition of viral replication incubated for 1 hr followed by washing with PBS and subsequent treatment with compound for 24 hrs by plaque reduction assay; format: functional, organism-based; settings: Human alphaherpesvirus 1, Vero
[6] = tested on: Human alphaherpesvirus 2; experiment: Antiviral activity against HSV-2 infected in African green monkey Vero cells assessed as inhibition of viral replication incubated for 1 hr followed by washing with PBS and subsequent treatment with compound for 24 hrs by plaque reduction assay; format: functional, organism-based; settings: Human alphaherpesvirus 2, Vero
[7] = tested on: Vero; experiment: Cytotoxicity against African green monkey Vero cells assessed as reduction in cell viability incubated for 24 hrs by MTS assay; settings: chlorocebus sabaeus
[8] = Cytotoxicity against human HepDES19 cells assessed as reduction in cell viability incubated for 72 hrs by MTS assay; format: toxicity, cell-based; settings: hepdes19, 72 h
[9] = tested on: Human alphaherpesvirus 2; experiment: Antiviral activity against wild-type HSV-2 186 infected in African green monkey Vero cells assessed as inhibition of viral replication incubated for 1 hr followed by washing with PBS and subsequent treatment with compound for 24 hrs by plaque reduction assay; format: functional, organism-based; settings: Human alphaherpesvirus 2, 186, Vero
[10] = tested on: Human alphaherpesvirus 2; experiment: Antiviral activity against thymidine kinase-deficient ACV-resistant HSV-2 186 TKdeltakpn infected in African green monkey Vero cells assessed as inhibition of viral replication incubated for 1 hr followed by washing with PBS and subsequent treatment with compound for 24 hrs by plaque reduction assay; format: functional, organism-based; settings: Human alphaherpesvirus 2, 186 TKdeltakpn
[11] = tested on: Human alphaherpesvirus 2; experiment: Antiviral activity against HSV-2 333vhsB infected in African green monkey Vero cells assessed as inhibition of viral replication by measuring reduction in virus-induced cytopathic effect at 50 uM incubated for 20 hrs by colorimetric analysis; format: functional, organism-based
[12] = Half life in mouse liver microsomes at 2 uM in presence of NADPH by LC/MS/MS analysis; format: ADME, Microsome
[13] = Half life in human liver microsomes at 2 uM in presence of NADPH by LC/MS/MS analysis; format: ADME, Microsome
[14] = Apparent permeability of the compound across apical to basolateral side in human Caco-2 cells at 10 uM incubated for 2 hrs; format: ADME, cell-based; settings: caco-2, 2 h
[15] = Half-life in BALB/c mouse at 3 mg/kg, po and 1 mg/kg, iv by LC/MS/MS analysis; format: ADME, organism-based; settings: in vivo
[16] = Oral bioavailability in BALB/c mouse at 3 mg/kg by LC/MS/MS analysis; format: ADME, organism-based; settings: in vivo

| SMILES | log(activity) [1] | log(activity) [2] | log(activity) [3] | log(activity) [4] | EC50 [5] | EC50 [6] | CC50 [7] | CC50 [8] | EC50 [9] | EC50 [10] | Activity [11] | t1/2 [12] | t1/2 [13] | Papp [14] | t1/2 [15] | bioavailability [16] |
| --- | --- | --- | --- | --- | --- | --- | --- | --- | --- | --- | --- | --- | --- | --- | --- | --- |
| Cc1cc(C2CCCCC2)n(O)c(=O)c1 [CICLOPIROX] | 5.5 | 2.6 | 4.62 | 1.66 | 270 nM | 500 nM | > 100000 nM | 13000 nM | < 300 nM | < 300 nM | – | – | – | – | – | – |
| Cc1cc(Cc2ccc(-c3ccccc3)cc2)n(O)c(=O)c1 | 4.6 | 3.09 | 4.74 | 4.37 | 210 nM | 140 nM | – | 12000 nM | < 300 nM | < 300 nM | Active | < 5 min | < 5 min | 1.35 10^-6 cm/s | < 60 min | 10% |
| Cc1cc(Cc2cccc3ccccc23)n(O)c(=O)c1 | 4.33 | 3.12 | 4.81 | 2.99 | – | 220 nM | 93100 nM | 25000 nM | < 300 nM | < 300 nM | Active | < 5 min | < 5 min | 6.46 10^-6 cm/s | < 60 min | 10% |
